Source: paper PMC11012124, “Synthesis of Novel Triazine-Based Chalcones and 8,9-dihydro-7H-pyrimido[4,5-b][1,4]diazepines as Potential Leads in the Search of Anticancer, Antibacterial and Antifungal Agents” (International Journal of Molecular Sciences, 2024)

Tests used:
NCI-H23 = assay: cells; conditions: Homo sapiens, NCI-H23, 48 h; for CC50: read-out: LC50
MDA-MB-231/ATCC = assay: cells; conditions: Homo sapiens, MDA-MB-231, 48 h; for CC50: read-out: LC50
A498 = assay: cells; conditions: Homo sapiens, A498, 48 h; for CC50: read-out: LC50
SK-MEL-28 = assay: cells; conditions: Homo sapiens, SK-MEL-28, 48 h; for CC50: read-out: LC50
CCRF-CEM = assay: cells; conditions: Homo sapiens, 48 h; for CC50: read-out: LC50
K-562 = assay: cells; conditions: Homo sapiens, K562, 48 h; for GI50: K-562, 48 h; for CC50: read-out: LC50
HCC-2998 = assay: cells; conditions: Homo sapiens, HCC 2998, 48 h; for CC50: read-out: LC50
HT29 = assay: cells; conditions: Homo sapiens, HT-29, 48 h; for CC50: read-out: LC50
PC-3 = assay: cells; conditions: Homo sapiens, PC-3, 48 h; for CC50: read-out: LC50
[1] = Hemolytic activity, spectrophotometric; assay type: cell-based, human; conditions: human, human red blood cells (huRBC), 5% hematocrit, 200 μg/mL, 37 °C
LOX IMVI = assay: cells; conditions: Homo sapiens, 48 h; for CC50: read-out: LC50, LOX IMVI, 48 h
KM12 = assay: cells; conditions: Homo sapiens, KM12, 48 h; for CC50: read-out: LC50
NCI-H460 = assay: cells; conditions: Homo sapiens, NCI-H460, 48 h; for CC50: read-out: LC50
HOP-62 = assay: cells; conditions: Homo sapiens, HOP-62, 48 h; for CC50: read-out: LC50
COLO 205 = assay: cells; conditions: Homo sapiens, COLO 205, 48 h; for CC50: read-out: LC50
A549/ATCC = assay: cells; conditions: Homo sapiens, A549, 48 h; for CC50: read-out: LC50
T-47D = assay: cells; conditions: Homo sapiens, T47D, 48 h; for CC50: read-out: LC50
HCT-15 = assay: cells; conditions: Homo sapiens, HCT-15, 48 h; for CC50: read-out: LC50
SK-OV-3 = assay: cells; conditions: Homo sapiens, SK-OV-3, 48 h; for CC50: read-out: LC50
IGROV1 = assay: cells; conditions: Homo sapiens, IGROV-1, 48 h; for CC50: read-out: LC50
OVCAR-3 = assay: cells; conditions: Homo sapiens, OVCAR-3, 48 h; for CC50: read-out: LC50
CAKI-1 = assay: cells; conditions: Homo sapiens, CAKI-1, 48 h; for CC50: read-out: LC50
HCT-116 = assay: cells; conditions: Homo sapiens, HCT-116, 48 h; for CC50: read-out: LC50
SF-295 = assay: cells; conditions: Homo sapiens, SF-295, 48 h; for CC50: read-out: LC50
786-0 = assay: cells; conditions: Homo sapiens, 786-0, 48 h; for CC50: read-out: LC50
HOP-92 = assay: cells; conditions: Homo sapiens, HOP-92, 48 h; for CC50: read-out: LC50
RXF 393 = assay: cells; conditions: Homo sapiens, RXF 393, 48 h; for CC50: read-out: LC50
ACHN = assay: cells; conditions: Homo sapiens, 48 h; for CC50: read-out: LC50
SF-268 = assay: cells; conditions: Homo sapiens, SF-268, 48 h; for CC50: read-out: LC50
OVCAR-5 = assay: cells; conditions: Homo sapiens, OVCAR-5, 48 h; for CC50: read-out: LC50
SW-620 = assay: cells; conditions: Homo sapiens, SW-620, 48 h; for CC50: read-out: LC50
SK-MEL-2 = assay: cells; conditions: Homo sapiens, SK-MEL-2, 48 h; for CC50: read-out: LC50
SK-MEL-5 = assay: cells; conditions: Homo sapiens, SK-MEL-5, 48 h; for CC50: read-out: LC50
MOLT-4 = assay: cells; conditions: Homo sapiens, MOLT-4, 48 h; for CC50: read-out: LC50
MALME-3M = assay: cells; conditions: Homo sapiens, 48 h; for CC50: read-out: LC50
U251 = assay: cells; conditions: Homo sapiens, U-251, 48 h; for GI50: U251, 48 h; for CC50: read-out: LC50
EKVX = assay: cells; conditions: Homo sapiens, 48 h; for CC50: read-out: LC50
UO-31 = assay: cells; conditions: Homo sapiens, UO-31, 48 h; for CC50: read-out: LC50

What does the source list for CN(C)c1nc(NCCNS(=O)(=O)c2ccc(C(=O)/C=C/c3ccc(Cl)cc3)cc2)nc(Nc2ccc(F)cc2)n1 [24e]?
GI50 (NCI-H23): 10.7 µM; CC50 (NCI-H23): 23.4 µM; GI50 (MDA-MB-231/ATCC): 4.72 µM; CC50 (MDA-MB-231/ATCC): 17.4 µM; GI50 (A498): 10.5 µM; CC50 (A498): 23.1 µM; GI50 (SK-MEL-28): 6.77 µM; CC50 (SK-MEL-28): 20.1 µM; GI50 (CCRF-CEM): 3.75 µM; CC50 (CCRF-CEM): > 100 µM; GI50 (K-562): 3.29 µM; CC50 (K-562): > 100 µM; GI50 (HCC-2998): 2.48 µM; CC50 (HCC-2998): 6.9 µM; GI50 (HT29): 2.15 µM; CC50 (HT29): 5.72 µM; GI50 (PC-3): 3.74 µM; CC50 (PC-3): 14.1 µM; hemolysis at 24 h, 200 µg/mL [1]: 9.1%; GI50 (LOX IMVI): 2.74 µM; CC50 (LOX IMVI): 9.16 µM; GI50 (KM12): 2.97 µM; CC50 (KM12): 9.1 µM; GI50 (NCI-H460): 3.38 µM; CC50 (NCI-H460): 13.8 µM; GI50 (HOP-62): 12.5 µM; CC50 (HOP-62): 27.5 µM; GI50 (COLO 205): 5.96 µM; CC50 (COLO 205): 18.7 µM; GI50 (A549/ATCC): 4.52 µM; CC50 (A549/ATCC): 17.4 µM; GI50 (T-47D): 4.37 µM; CC50 (T-47D): 18 µM; GI50 (HCT-15): 4.62 µM; CC50 (HCT-15): 16.9 µM; GI50 (SK-OV-3): 11.5 µM; CC50 (SK-OV-3): 27.7 µM; GI50 (IGROV1): 8.58 µM; CC50 (IGROV1): 21.4 µM; GI50 (OVCAR-3): 3.16 µM; CC50 (OVCAR-3): 11.9 µM; GI50 (CAKI-1): 4.93 µM; CC50 (CAKI-1): 19.5 µM; GI50 (HCT-116): 1.66 µM; CC50 (HCT-116): 3.11 µM; GI50 (SF-295): 6.11 µM; CC50 (SF-295): 19.8 µM; GI50 (786-0): 7.28 µM; CC50 (786-0): 20.2 µM; GI50 (HOP-92): 3.83 µM; CC50 (HOP-92): 14.7 µM; GI50 (RXF 393): 3.09 µM; CC50 (RXF 393): 15.1 µM; GI50 (ACHN): 4.2 µM; CC50 (ACHN): 15.3 µM; GI50 (SF-268): 6.21 µM; CC50 (SF-268): 23.5 µM; GI50 (OVCAR-5): 10.7 µM; CC50 (OVCAR-5): 22.6 µM; GI50 (SW-620): 2.78 µM; CC50 (SW-620): 11 µM; GI50 (SK-MEL-2): 5.47 µM; CC50 (SK-MEL-2): 19.5 µM; GI50 (SK-MEL-5): 5.89 µM; CC50 (SK-MEL-5): 18.8 µM; GI50 (MOLT-4): 3.07 µM; CC50 (MOLT-4): > 100 µM; GI50 (MALME-3M): 12.8 µM; CC50 (MALME-3M): 26.4 µM; GI50 (U251): 5.25 µM; CC50 (U251): 18.6 µM; GI50 (EKVX): 3.11 µM; CC50 (EKVX): 14.7 µM; GI50 (UO-31): 4 µM; CC50 (UO-31): 16.6 µM

What does the source list for CN(C)c1nc(NCCNS(=O)(=O)c2ccc(C(=O)/C=C/c3ccc(F)cc3)cc2)nc(Nc2ccc(F)cc2)n1 [24f]?
GI50 (NCI-H23): 4.17 µM; CC50 (NCI-H23): 15.6 µM; GI50 (MDA-MB-231/ATCC): 2.64 µM; CC50 (MDA-MB-231/ATCC): 8.39 µM; GI50 (A498): 6.21 µM; CC50 (A498): 19.3 µM; GI50 (SK-MEL-28): 3.6 µM; CC50 (SK-MEL-28): 13.7 µM; GI50 (CCRF-CEM): 3.42 µM; CC50 (CCRF-CEM): > 100 µM; GI50 (K-562): 2.42 µM; CC50 (K-562): 6.79 µM; GI50 (HCC-2998): 1.8 µM; CC50 (HCC-2998): 3.45 µM; GI50 (HT29): 1.9 µM; CC50 (HT29): 3.65 µM; GI50 (PC-3): 2.76 µM; CC50 (PC-3): 10.6 µM; hemolysis at 24 h, 200 µg/mL [1]: 9.9%; GI50 (LOX IMVI): 1.66 µM; CC50 (LOX IMVI): 3.07 µM; GI50 (KM12): 2 µM; CC50 (KM12): 4.41 µM; GI50 (NCI-H460): 2.45 µM; CC50 (NCI-H460): 6.93 µM; GI50 (HOP-62): 8.39 µM; CC50 (HOP-62): 23.5 µM; GI50 (COLO 205): 2.38 µM; CC50 (COLO 205): 6.56 µM; GI50 (A549/ATCC): 3.41 µM; CC50 (A549/ATCC): 14.2 µM; GI50 (T-47D): 3.02 µM; CC50 (T-47D): 11.7 µM; GI50 (HCT-15): 1.99 µM; CC50 (HCT-15): 4.28 µM; GI50 (SK-OV-3): 8.23 µM; CC50 (SK-OV-3): 21.6 µM; GI50 (IGROV1): 4.27 µM; CC50 (IGROV1): 15 µM; GI50 (OVCAR-3): 1.74 µM; CC50 (OVCAR-3): 3.24 µM; GI50 (CAKI-1): 3.01 µM; CC50 (CAKI-1): 12.7 µM; GI50 (HCT-116): 1.6 µM; CC50 (HCT-116): 3.01 µM; GI50 (SF-295): 3.4 µM; CC50 (SF-295): 13 µM; GI50 (786-0): 2.56 µM; CC50 (786-0): 6.3 µM; GI50 (HOP-92): 2.49 µM; CC50 (HOP-92): 6.51 µM; GI50 (RXF 393): 2.26 µM; CC50 (RXF 393): 7.51 µM; GI50 (ACHN): 3.13 µM; CC50 (ACHN): 10.9 µM; GI50 (SF-268): 3.89 µM; CC50 (SF-268): 16.4 µM; GI50 (OVCAR-5): 3.39 µM; CC50 (OVCAR-5): 15 µM; GI50 (SW-620): 1.9 µM; CC50 (SW-620): 4.02 µM; GI50 (SK-MEL-2): 2.77 µM; CC50 (SK-MEL-2): 8.31 µM; GI50 (SK-MEL-5): 2.91 µM; CC50 (SK-MEL-5): 11.1 µM; GI50 (MOLT-4): 2.5 µM; CC50 (MOLT-4): 6.49 µM; GI50 (MALME-3M): 3.42 µM; CC50 (MALME-3M): 12.4 µM; GI50 (U251): 1.99 µM; CC50 (U251): 4.41 µM; GI50 (EKVX): 2.95 µM; CC50 (EKVX): 10.9 µM; GI50 (UO-31): 2.9 µM; CC50 (UO-31): 11.9 µM
